# According to publication PMC10266688 (PLOS ONE, 2023):
# Where “and” joins values, the source holds several entries; their conditions need not be identical. Equal entries are not always repeated.
# Tests used:
# [1] = Tissue distribution in CD1 mice, LC-MS/MS; assay type: in vivo, mouse; conditions: 40 mg/kg IV
# Protocol: Tissue homogenates were prepared at a concentration of 200 mg/mL in PBS. After vortex-mixing and centrifuging for 5 min at 2700 rpm. […] Mobile phase A was water containing 0.1% formic acid, and mobile phase B was acetonitrile containing 0.1% formic acid. The gradient started with mobile phase B at 20% and was held at 20% for 0.5 min with a flow rate of 0.3 mL/min, then increased to 100% over 0.5 minutes and held for 2.0 min, and finally returned back to 20% mobile phase B and allowed to equilibrate until 4.1min. […] The lower limit of quantitation (LLOQ) in plasma was 10 ng/mL.
# A) ES2 cells stably transduced with the 4UbFL reporter plasmid were treated with compounds at indicated doses for 4 h. The cells were then washed, lysed and their luminescence measured by a luminometer after addition of luciferin. B) Female CD1 mice electroporated with 4UbFL plasmid in their leg muscle. After 48 h, the mice were injected with luciferin, imaged by IVIS for their basal bioluminescence and randomized into two groups of five. […] D) Up284 tissue distribution. […] Up284 levels in tissue samples were analyzed by HPLC. E) Up284 pharmacokinetics. […] Blood was collected at indicated time points thereafter and analyzed for Up284 levels by HPLC.
# Up284 levels were analyzed in all major tissues (brain, colon, heart, kidney, liver, lung and spleen) by liquid chromatography–mass spectrometry (LC–MS/MS).
# CHOP10 mRNA = assay: Q-PCR of CHOP10 mRNA; conditions: 1 μM, 4 h
# ES2 cells = assay: Reactive oxygen species, Amplex Red/HRP; conditions: 12 h
# [2] = Microsomal stability, human liver microsomes; assay type: in vitro ADME; conditions: for % Drug Remaining NADPH Neg, Human Liver Microsomes / % Drug Remaining NADPH Pos, Human Liver Microsomes: 10 μM
# Protocol: An incubation mixture with, and without NADPH-generating system, as well as a neat solution prepared without microsomes and NADPH-generating system was used. […] All reactions were initiated with the addition of Up284. Incubations were performed in glass tubes maintained at 37°C in a shaker bath. At 0, 30, and 60 minutes, 10 μL samples were withdrawn from the reaction mixture, and 0.5 mL of acetonitrile containing internal standard was added to each. Samples were vortex-mixed and subjected to centrifugation for 5 min at 1430 x g. A 10 μL aliquot of the supernatant was injected onto the LC-MS/MS instrument for qualitative analysis using a temperature-controlled autosampling device operating at 5°C.
# [3] = target: T1, 42kDa cellular protein (RPN13) (Homo sapiens, UniProt Q16186); assay: Competition for RA190B binding in HeLa cell lysate; conditions: HeLa lysate pre-treated with compound (5 μM) 45 min 4°C, then RA190B (20 μM)
# T1 construct: endogenous in cells; host or cells: HeLa cell lysate
# T1 sequence (Q16186 2-407): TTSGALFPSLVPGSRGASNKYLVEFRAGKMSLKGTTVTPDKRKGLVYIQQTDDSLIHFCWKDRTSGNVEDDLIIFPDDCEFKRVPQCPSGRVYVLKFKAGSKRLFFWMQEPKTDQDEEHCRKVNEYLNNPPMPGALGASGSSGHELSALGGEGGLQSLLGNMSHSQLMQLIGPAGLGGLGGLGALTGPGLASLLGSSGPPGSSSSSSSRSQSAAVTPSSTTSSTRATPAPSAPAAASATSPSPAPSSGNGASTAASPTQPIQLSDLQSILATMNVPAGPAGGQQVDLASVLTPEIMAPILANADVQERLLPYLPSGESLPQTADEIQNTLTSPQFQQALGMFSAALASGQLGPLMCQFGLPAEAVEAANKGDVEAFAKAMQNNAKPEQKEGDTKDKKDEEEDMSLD
# Protocol: NEM (1 mM) used as positive control.
# [4] = test system: peritoneal/ovarian tumor (shp53, AKT, c-Myc); assay: Spontaneous genetically-engineered mouse model (GEMM) of ovarian cancer; assay type: in vivo; conditions: C57BL/6, 20mg/kg IP every 3 days for 6 weeks
# Protocol: To induce IP tumor formation in immunocompetent mice, oncogenes (shp53, AKT, c-Myc), luciferase and the Sleeping Beauty (SB) transposase (10 μg/plasmid) were diluted in 500 μL of PBS and injected IP into female C57BL/6 mice. The mice were anesthetized by intramuscular injection of ketamine. The plasmid-injected mice were electroporated (EP) by the BTX ECM 830 square wave EP generator (BTX) (5 pulses, 200 V for 100 ms/pulse, 100 ms intervals between each pulse), the caliper electrode (BTX) was held on the waist of mouse. The mice were followed by IVIS imaging weekly for tracking tumor growth. The mice were sacrificed when the bioluminescence signal reached 10^9 photons/sec/cm^2/sr, or had enlarged abdomens due to the production of ascites, or had health conditions and/or criteria under which early euthanasia was required by the protocol (see above). To track peritoneal tumor growth, bioluminescence imaging was performed by the IVIS spectrum2000 (PerkinElmer) as the plasmid expressing SB transposase also produces luciferase. Briefly, the mice were injected IP with D-luciferin (GoldBio). After 10 min, the mice were anesthetized with isoflurane, and imaged by the IVIS Spectrum under the auto exposure mode. Bioluminescence in the peritoneal region was quantified as total photon counts/sec/cm^2/sr using Living Image 3.0 Software (Perkin Elmer).
# A-C) Female nude mice were inoculated IP with ES2-luc cells, a human ovarian cancer line expressing luciferase. […] The IP tumor tissue and electroporated normal muscle tissue, being spatially distinct, were identified with separate regions of interest (ROI) after simultaneous imaging with IVIS.
# GEMM better mimic the spontaneous development of cancers in an immune competent host than transplantable tumor lines. Twenty female C57BL/6 mice were co-injected IP with sleeping beauty vector and plasmids expressing carrying shp53, AKT, c-Myc and firefly luciferase genes, followed by electroporation (EP) to deliver these plasmid DNA into the peritoneal cavity cells wherein they integrate randomly into their genome. […]
# cellular DUB enzymes = assay: Total cellular DUB activity, Ub-AMC cleavage, SKOV3 cells; conditions: 5 μM, 1 h
# [5] = Plasma Protein Binding (equilibrium dialysis); assay type: in vitro ADME, mouse
# Protocol: The assay was performed in a multiple-use 96-well dialysis unit (HTD96b dialyzer). Each individual well unit consisted of 2 chambers separated by a vertically aligned dialysis membrane of predetermined pore size (MWCO 12–14 kDa). 120 μL of non-diluted plasma spiked with the compound (1 μM, final DMSO concentration 1%) was added to one chamber, and the same volume of PBS buffer pH 7.4 to the other chamber. The HTD96b dialyzer was covered with adhesive sealing film and incubated 5 h at 37°C while shaking at 100 rpm. For sample preparation, an aliquot of the contents of each chamber was mixed with the same volume of the blank opposite matrix. In order to define non-specific loss of the compound during this assay, a standard solution was created by mixing an aliquot of spiked plasma with blank buffer without dialysis. Two aliquots of the standard solution were incubated at 37°C, shaking at 100 rpm for 5 h (recovery samples). The other two aliquots were immediately diluted with acetonitrile and stored at 4°C until analysis (stability samples). All samples were diluted 5-fold with internal standard diluted in 100% methanol with subsequent plasma proteins sedimentation by centrifuging at 6000 rpm for 5 minutes. Supernatants were analyzed using LC-MS/MS. The percentage of plasma protein bound compound, recovery and stability were calculated using following equations.
# Proteinbinding={(1−(arearatioinbuffer)/(arearatioinplasma)}.100%
# Recovery={(arearatioinbuffer+peakareainplasma)/arearatioinrecoverysample}.100%
# Stability={arearatioinrecoverysample/arearatioinstabilitysample}.100%
# HeLa cells = assay: MTT cytotoxicity assay, HeLa cells, 72 h; assay type: cell-based; conditions: Homo sapiens, 72 h treatment
# [6] = Plasma stability, mouse EDTA plasma; assay type: in vitro ADME; conditions: for % Drug Remaining, Plasma (Mouse EDTA): 10 μM, 37°C
# [7] = test system: panel of cancer cell lines; assay: MTT cytotoxicity, broad panel of cancer cell lines and normal cells (Fig 1B); conditions: 72 h
# [8] = mouse plasma, 1.0 µM, individual incubations
smiles,measurement,setting,value
N#Cc1ccc(/C=C2/C(=O)/C(=C/c3ccc(C#N)cc3)C23CCNCC3)cc1 [Up284],plasma level at 24 h,[1],low
same,"tissue levels (brain, colon, heart, kidney, liver, lung and spleen)",[1]; 24 h,"accumulated in all the tissues, particularly the lungs"
same,CHOP10 mRNA levels,CHOP10 mRNA,rapid upregulation
same,reactive oxygen species,ES2 cells,elevated levels of reactive oxygen species
same,"additional degradation in the presence of NADPH, human liver microsomes",[2],~ 10%
same,degradation in human liver microsomes without NADPH,[2],~ 50%
same,"% Drug Remaining NADPH Neg, Human Liver Microsomes",[2]; 0 min,100%
same,"% Drug Remaining NADPH Pos, Human Liver Microsomes",[2]; 0 min,100%
same,"% Drug Remaining NADPH Neg, Human Liver Microsomes",[2]; 30 min,57%
same,"% Drug Remaining NADPH Pos, Human Liver Microsomes",[2]; 30 min,43%
same,"% Drug Remaining NADPH Neg, Human Liver Microsomes",[2]; 60 min,52%
same,"% Drug Remaining NADPH Pos, Human Liver Microsomes",[2]; 60 min,43%
same,competition for RA190B binding to the 42KDa cellular protein,[3],competed
same,ascites,[4],did not develop appreciable ascites
same,GEMM tumor burden vs vehicle,[4]; p = 0.002,significantly reduced tumor burden
same,survival vs vehicle,[4]; p = 0.06,trend for prolonged survival
same,total lysate DUB enzymatic activity (Ub-AMC),cellular DUB enzymes,No reduction
same,"% of bound compound, mean","[5]; mouse plasma, 1.0 µM",98%
same,"Stability, %","[5]; mouse plasma, 1.0 µM, 5 h 37°C",109%
same,% of bound compound,[5]; [8],98% and 97%
same,"Recovery, %",[5]; [8],101%
same,"recovery at 5 h, 1 µM","[5]; mouse, non-diluted plasma, pH 7.4, mouse plasma, individual incubations",98%
same,IC50,HeLa cells,40 nM
same,"% Drug Remaining, Plasma (Mouse EDTA)",[6]; 0 min,100%
same,"% Drug Remaining, Plasma (Mouse EDTA)",[6]; 30 min,84%
same,"% Drug Remaining, Plasma (Mouse EDTA)",[6]; 60 min,94%
same,degradation in murine plasma,[6]; after incubating for 1 hour,< 10%
same,cytotoxicity against normal cells,[7],relatively spared normal cells
same,sensitivity of HCT116 cells regardless of Tp53 status,[7],similarly sensitive
same,sensitivity of RPMI8226 and ANBL6 and bortezomib-resistant (-V10R) lines,[7],similarly very sensitive
